This note sets out measurements from patent US20250269022A1, “ASSESSING AND TREATING CANCER” (Mayo Foundation for Medical Education and Research, priority 2021, published 2025).

Data set [1] relates to JeKo-1 cells. The data set is described as follows: CART19 killing of luciferase+ JeKo-1 cells in combination with small molecules. The class given is cell-based. On the procedure:
CART19 cells were cultured in combination with different molecules at the indicated ratios/concentration, and in combination with the luciferase+ JeKo-1 cells at the indicated E:T ratios. Killing was determined after 24 hours using bioluminescence imaging.

Data set [2] has as its system CART cells. Nature of the data set: Proliferation assay of CART cells co-cultured with JeKo-1 cells, with navitoclax or venetoclax. The data set is classed as cell-based. An excerpt:
Longitudinal navitoclax treatment of CART cells. […] Longitudinal treatments included two parts.
For proliferation assays, effector cells (CART cells), and irradiated target cells (CD19+ JeKo 1 cells) were co-cultured at different ratios and with different concentrations of the compounds. Cells were co-cultured for 3-5 days, and then cells were harvested and surface staining with antihCD3 (eBioscience, San Diego, CA, USA) and LIVE/DEAD™ Fixable Aqua Dead Cell Stain Kit (Invitrogen, Carlsbad, CA, USA) was performed.

The subject of data set [3] is JeKo-1 cells. The data set is described as follows: Cytotoxicity (killing) assay of CART cells against luciferase+ JeKo-1 cells, with senolytics. The protocol: D8 CART cells were treated with navitoclax (0 μM, 0.5 μM, 1 μM, 2 μM, or 4 μM) for 24 hours and then divided into two groups. In the first group, navitoclax was washed away for proliferation and cytotoxicity assays. In the second group, navitoclax treatment was maintained during proliferation and cytotoxicity assays.
Longitudinal navitoclax treatment of CART cells. D15 and D22 CART cells were generated to mimic possible dysfunctions (e.g., exhaustion, senescence, etc.) that CART cells can develop. Serial activation of CART cells can induce T cell senescence during CART cell generation. This experiment was designed to selectively remove senescing CART cells during CART cell proliferation. During this experiment CART cells were pretreated with navitoclax, the proliferation, EDU, and cytotoxicity assays were done in the absence of navitoclax. Longitudinal treatments included two parts. Part I was a typical CART cell production protocol except for addition of navitoclax at D7 for 24 hours. Briefly, CART cells were activated on day 1, transduced on day 2, and debeaded on day 6. On day 7, CART cells were treated with navitoclax (0 μM, 0.125 μM, 0.25 μM, 0.5 μM, 0.75 μM, 1 μM, or 2 μM). On day 8, the navitoclax was washed away, and the CART cells were prepared for cytotoxicity assays and proliferation assays. For part II, JeKo-1 UDT was added to the CART cells on days 8 and 10, the media was replaced on day 12, and navitoclax was added on day 13. On day 14, the navitoclax was washed away, and the CART cells were prepared for cytotoxicity assays and proliferation assays or JeKo-1 IR was added and the CART cells were prepared for an EdU assay. The CART cells were provided several resting times after being activated by JeKo-1 to provide plenty of resting time to differentiate reversible exhaustion and irreversible T cell senescence. This assay focuses on D8 (freshly generated CART cells), D15 (D8 cells activated with JeKo-1 for a week as indicated as part II in the figure), and D22 CART cells (additional activation summarized in part II on D15 CART cells).
For killing assays, the CD19+ Luciferase+ mantle cell lymphoma cell like JeKo-1 cells were incubated with effector T cells for 24, 48, or 72 hours. Killing was calculated by bioluminescence imaging on a Xenogen IVIS-200 Spectrum camera (PerkinElmer, Hopkinton, MA, USA) as a measure of residual live cells. Samples were treated with 1 μL D-luciferin (30 μg/mL) per 100 μL sample volume (Gold Biotechnology, St. Louis, MO, USA), for 10 minutes prior to imaging.

The subject of data set [4] is CART cells. The data set is described as follows: EdU assay of cycling CART cells. The class given is cell-based. The settings on record: navitoclax treated. The protocol:
Longitudinal navitoclax treatment of CART cells. […] […] Longitudinal treatments included two parts. […] Cells were co-cultured for 3-5 days, and then cells were harvested and surface staining with […]3 (eBioscience, San Diego, CA, USA) and LIVE/DEADTM Fixable Aqua Dead Cell Stain Kit (Invitrogen, Carlsbad, CA, USA) was performed.

For a further data set, the system named is JeKo1 cell line. The data set is described as follows: In vivo JeKo1 xenograft with navitoclax-treated CART cells. Set-up: species or system NSG mice. From the text:
NSG mice were engrafted with the luciferase positive, CD19+ JeKo1 cell line I.V. One week later, mice underwent bioluminescence imaging (BLI) to determine the level of the disease and then randomized to treatment with CART cells. Mice then underwent weekly BLI to measure disease burden and were followed for survival.

The target of the next data set is T1, PD-L1 (Homo sapiens, UniProt Q9NZQ7).
T1 construct: These PPP preparations from the peripheral blood of untreated CLL patients are the source of the samples called CLL-derived EVs; from tissue; host or cells: extracellular vesicles in platelet-poor plasma of untreated CLL patients, co-cultured with CART19 cells and then JeKo-1 cells
The data set is described as follows: CART19 antigen-specific proliferation with PD-L1 blockade in presence of PD-L1high CLL-derived EVs. The data set is classed as cell-based. The settings on record: PD-L1high CLL-derived EVs 100:1, 6 hours, JeKo-1 at E:T 5:1, antibody 20 μg/mL. The protocol:
CART19 and JeKo-1 or JeKo-1 cells irradiated at 120 Gy were cocultured at a 1:1 ratio with or without CLL-derived EVs. T cells for functional assays were cultured in T cell medium containing X-VIVO 15 (Lonza, Walkersville, MD, USA), 10% human serum albumin (Innovative Research, Novi, MI, USA), and 1% penicillin-streptomycin-glutamine (Gibco, Gaithersburg, MD, USA). EVs were cocultured with CART19 cells at 100:1, 10:1, 5:1, and 1:1 EV/CART cell ratios using three biological replicates of CLL-derived EVs at 37° C., 5% CO2, and then co-cultured with primary CLL cells or JeKo-1 cells as indicated in the specific experiment. Cell supernatant was collected at 24 hours, and cells were analyzed by flow cytometry. To assess killing and proliferation, UTD T cells, CART19 cells, and CART19 cells co-cultured with CLL-derived EVs at a 100:1 EV/CART cell ratio were incubated at 37° C., 5% CO2 for 6 hours before adding JeKo-1 target cells. […] Cells were analyzed by flow cytometry after 48 hours of incubation.

Entries after “also recorded” stand apart in the source; their conditions may differ. Read-outs that look alike come from different tables or passages of the source.

T1 sequence (Q9NZQ7 19-290): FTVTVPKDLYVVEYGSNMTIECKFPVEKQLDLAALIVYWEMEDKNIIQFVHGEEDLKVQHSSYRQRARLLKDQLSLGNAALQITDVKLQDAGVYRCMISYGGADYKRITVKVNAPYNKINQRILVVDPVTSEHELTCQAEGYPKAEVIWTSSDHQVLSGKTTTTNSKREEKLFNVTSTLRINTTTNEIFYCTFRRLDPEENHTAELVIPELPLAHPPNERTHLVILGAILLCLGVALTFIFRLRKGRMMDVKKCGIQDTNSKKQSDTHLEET

As for `O=S(=O)(c1cccc2cnccc12)N1CCCNCC1` [fasudil], in the data set on JeKo-1 cells [1] (combination with CART19 cells, 24 hours, bioluminescence), the “CART19 antigen specific killing” value is recorded as “improved CART19 antigen specific killing”.
`CC1(C)CCC(c2ccc(Cl)cc2)=C(CN2CCN(c3ccc(C(=O)NS(=O)(=O)c4ccc(N[C@H](CCN5CCOCC5)CSc5ccccc5)c(S(=O)(=O)C(F)(F)F)c4)cc3)CC2)C1` [navitoclax]: in the data set on CART cells [2] (CART cells co-cultured with JeKo-1 in presence of drug), the “CART cell proliferation against JeKo-1 in combination with senolytic” value was “decreased CART cell proliferation”. The CART cell proliferation entry in the data set with CART cells [2] (D8 CART cells continuously treated with navitoclax, co-culture with JeKo-1, vs untreated CART cells) is reported as “decreased proliferation”. Besides, the “D22 CART cell proliferation” value with CART cells [2] (longitudinal navitoclax treatment vs navitoclax untreated CART cells, in vitro) is “increase in D22 CART proliferation”. Besides, the “CART cell proliferation over time” value in the data set with CART cells [2] (longitudinal navitoclax treatment, D8, D15, D22) was “decreased proliferation of CART cells through time; also recorded: decreases over time”. In addition, the “Cytotoxicity of drug alone against JeKo-1” value in the data set on JeKo-1 cells [3] (0:1 E:T ratio (no CART)) is given as “cytotoxic against JeKo-1”. Moreover, in the data set with JeKo-1 cells [3] (D8 CART cells co-cultured with JeKo-1 and drug, 48 hours), the “CART cell cytotoxicity against JeKo-1 in combination with senolytic” value was “increased CART cell cytotoxicity”. For the same compound, the “CART cell cytotoxicity against JeKo-1” value was “decreased CART cell cytotoxicity” in the data set on JeKo-1 cells [3] (navitoclax maintained in assay, higher navitoclax concentrations) and “did not result in different cytotoxicity” with JeKo-1 cells [3] (navitoclax pre-treatment 24 hours, assay without navitoclax). Besides, the “EdU positivity of CART cells” value in the data set on CART cells [4] (D8 and D22 CART cells) was “similar”; in the data set on CART cells [4] (D15 CART cells), “decreased”. In addition, the “Tumor burden of mice” value in the data set on JeKo1 cell line (D22 CART cells treated with or without navitoclax, 22 days after CART cell transplantation) is recorded as “not different”. In addition, the “Antitumor activity of CART cells in vivo” value in the data set on JeKo1 cell line (navitoclax pretreatment of CART cells) is “did not increase antitumor activity; also recorded: did not improve CART cell activity”.
On to `CC1(C)CCC(CN2CCN(c3ccc(C(=O)NS(=O)(=O)c4ccc(NCC5CCOCC5)c([N+](=O)[O-])c4)c(Oc4cnc5[nH]ccc5c4)c3)CC2)=C(c2ccc(Cl)cc2)C1` [venetoclax], for which the “CART cell cytotoxicity against JeKo-1 in combination with senolytic” value in the data set on JeKo-1 cells [3] is reported as “increased CART cell cytotoxicity”.
In the case of `CC(C)(CO)[C@@H](O)C(=O)NCCC(=O)NCCSSCCNC(=O)CCNC(=O)[C@H](O)C(C)(C)CO` [panthethine, D-pantethine], the “CART19 antigen specific killing” value in the data set on JeKo-1 cells [1] was “improved CART19 antigen specific killing”.
On to atezolizumab [anti-PD-L1 antibody], for which the “Reversal of EV-mediated inhibition of CART19 antigen-specific proliferation” value is on record as “did not improve” with PD-L1 and “no statistically significant reversal” in the data set with PD-L1 (listed as PD-L1 blocking antibodies).
